Reference: patent publication US6420605B1, “Benzamidoxim derivatives, intermediate products and methods for preparing and using them as fungicides” (BASF Aktiengesellschaft, priority 1997, dated 2002)

Test system: powdery mildew of wheat (Erysiphe graminis f.sp.tritici)
Test: Efficacy against powdery mildew of wheat (protective spray, greenhouse)
Format: in vivo
Conditions: wheat seedlings cv. Frühgold sprayed 24 hours before dusting with spores, after 7 days, untreated plants 80%
Description: Leaves of wheat seedlings cv. “Frühgold” grown in pots were sprayed to runoff point with aqueous preparation of active ingredient made with a stock solution composed of 10% active ingredient, 63% cyclohexanone and 27% emulsifier and, 24 hours after the spray coating had dried on, dusted with spores of powdery mildew of wheat (Erysiphe graminis f.sp.tritici). The test plants were subsequently placed in the greenhouse at from 20 to 22° C. and a relative atmospheric humidity of 75 to 80%. After 7 days, the extent of the mildew development was determined visually in % of the total leaf area.

[1] = Example 3, aqueous preparation comprising 63 ppm active ingredient

Row | SMILES | extent of the mildew development determined visually in % of the total leaf area [1] | extent of the mildew development determined visually in % of the total leaf area (Example 4, concentration not given)
1 | C=CCCON=C(NC(=O)Cc1ccccc1)c1c(F)cccc1OC(F)F [I.3, N-Phenylacetyl-2-difluoromethoxy-6-fluorobenzamide O-allylmethyl oxime] | free from disease | –
2 | O=C(Cc1ccccc1)NC(=NOCC1CC1)c1c(F)cccc1OC(F)F [I.6, N-Phenylacetyl-2-difluoromethoxy-6-fluorobenzamide O-cyclopropylmethyl oxime] | free from disease | –
3 | N#Cc1c(F)cccc1OC(F)F [II.1, 2-Difluoromethoxy-6-fluorobenzonitrile] | – | free from disease
